In publication PMC5320394, “Development of a Novel Formulation That Improves Preclinical Bioavailability of Tenofovir Disoproxil Fumarate” (Journal of Pharmaceutical Sciences, 2017):
Structures can show the parent of a compound that is named as a salt. Where two headings read alike, the source gives them in different places.

Legend:
[1] = tested on: porcine pancrelipase (PL); assay: Hydrolysis of TDF by PL and effect of enzyme inhibitors; assay type: biochemical; conditions: for protection of TDF against PL hydrolysis: PP or MP together or alone, FaSSIF with PL; for half-life at 10 µM: pig, with none, Control, 10 μM TDF, PL, 37°C, no inhibitor, read-out: TDF t1/2
Protocol: TDF solutions were prepared at 10 μM and incubated in triplicate at 37°C in FaSSIF containing PL at 480 U/mL with and without inhibitors. Inhibitors were added at 10% vol/vol for the oils (sesame, olive, safflower, soybean, and coconut); at 10 mM for PP, MP, and EM1; and at 0.05 mM/0.002 mM for EDTA/PMSF. Controls consisted of TDF in transport media or FaSSIF with and without PL. Samples were incubated at 37°C and quenched with acetonitrile at 10, 15, 20, and 30 min. For each time point, the % TDF or % TFV-ME remaining was determined by LC-MS/MS as described below.

[2] = tested on: rat intestinal homogenates; parameters: method as in PMID 12124311; conditions: cited from earlier work
rat intestinal S9 = assay: TDF stability in rat intestinal S9 fraction and effect of inhibitors; conditions: for inhibition of TDF hydrolysis: rat S9
Protocol: (§3) TDF solutions were prepared at 10 μM in rat or human intestinal S9 fraction (0.5 mg protein/mL). Inhibitors were added to the solutions. […] Control samples included buffer, human S9, or rat S9 solutions with only TDF. Samples were incubated at 37°C for 0, 5, 10, 15, 20, and 30 min and then analyzed by LC-MS/MS for TDF, TFV-ME, TFV, and PP (to quantify stability).
(§4) Samples from S9 incubations were analyzed using the LC-MS/MS conditions described earlier for Caco-2 samples.

human intestinal S9 = assay: TDF stability in human intestinal S9 fraction and effect of inhibitors; conditions: for inhibition of TDF hydrolysis: human S9
Protocol: as §3, §4

in vivo = assay: in vivo; parameters: species or system Sprague-Dawley rats; conditions: rat, given IV; for AUC: male, Sprague-Dawley, plasma, iv, AUC0-8h
lymphocytes = tested on: lymphocytes; parameters: method as in PMID 9517941; conditions: cited from earlier work
[3] = pH stability of TDF in SGF and FaSSIF; assay type: physicochemical; conditions: 1 mM TDF
Protocol: The pH of fasted state simulated intestinal fluid (FaSSIF)[27] was adjusted with 2M NaOH to pH of 6.8, 9, and 11. Simulated gastric fluid (SGF) was used as is at pH 1.2. TDF solutions (100 mM) were prepared in 99% dimethyl sulfoxide. TDF solutions (1 mM) were prepared by 100-fold dilution in FaSSIF and SGF. The pH of the final solution was not measured.
The TDF stability study at pH 1.2 was measured at 37°C in triplicate at 0, 15, 30, 60, 90, and 120 min. The TDF stability studies at pH 6.8, 9, and 11 were measured at 37°C in triplicate at 0, 30, 60, 120, and 240 min. Samples (5 μL) were quenched by diluting 200-fold with 4°C 0.1% formic acid (35% MeOH). These samples were analyzed by liquid chromatography tandem mass spectrometry (LC-MS/MS).

[4] = tested on: porcine pancrelipase (PL); assay: Stability in SGF and FaSSIF with and without PL; assay type: in vitro ADME; conditions: 37°C; for stability in SGF and FaSSIF: without PL, up to 120 min, TDF 10 μM
Protocol: Samples were incubated at 37°C and quenched with acetonitrile at 0, 15, 30, 60, 90, and 120 min. For each time point, the % TDF or % TFV-ME remaining was determined by LC-MS/MS as described below.

MDCK-MDR1 cells (P-gp) = assay: MDCK-MDR1 efflux studies; assay type: in vitro ADME, canine; conditions: for Papp, B to A / Papp, A to B: (SEM)
Protocol: (§1) MDCK-MDR1 cells (Netherlands Cancer Institute) were seeded at a density of 3 × 10^5 cells per well onto microporous polycarbonate membranes in 12-well Costar Transwell plates (Corning, Inc.). The cells were incubated for 3 days during which time they formed confluent monolayers. Monolayer integrity was checked using a Millicell-ERS instrument (Millipore) to determine the transepithelial electrical resistance (TEER) across the monolayer. […] […] Competency of the P-gp efflux transporter was confirmed by assay of propranolol (nonsubstrate) and amprenavir (substrate). Cell monolayers were incubated in triplicate with shaking (160 rpm) at 37°C for 2 h. Samples were removed from the apical and basolateral compartments after incubation and assayed for test compound concentrations by LC-MS/MS.
(§2) Conditions were similar to those used for Caco-2 analyses. Differences included the use of a Phenomenex Synergi Hydro-RP column (4 μm, 2.1 × 50 mm) at 60°C, mobile phases of aqueous 0.2% formic acid (A) and neat methanol (B), and a rapid 0.9 min gradient from 0% to 95% B.

P-gp [5] = assay: MDCK-MDR1 efflux studies; assay type: in vitro ADME, canine; conditions: dog; for Papp B→A at 120 min, 5 µM: (SEM)
Protocol: as §1, §2

[6] = tested on: Caco-2 cell monolayers (P-gp); assay: in vitro; assay type: in vitro ADME; conditions: Caco-2, 10 μM TDF, 120 min, no inhibitor (CsA 0.00 µM)
Protocol: (§5) Caco-2 monolayer experiments were performed as previously described[30] with a few modifications. […] Following incubation, the media was replaced to remove dead cells and prevent the formation of multiple layers of cells settling on the filter. Media was then changed every 2-3 days and plates were used in experiments after a total of 21 days from initial seeding. Monolayer integrity was checked before and after each experiment using a Millicell-ERS instrument to determine the TEER across the monolayer and to ensure that there was no substantial change in monolayer integrity throughout the duration of an experiment. On the day of the experiment, the TEER was assessed and the media in each plate was replaced with warm HBSS (pH 7) and allowed to equilibrate (37°C, 30 min). Apical (for apical-to-basolateral [A-to-B] transport) chambers were replaced with HBSS containing 10 μM (final concentration, n = 3 reps) aqueous solution of drug and inhibitors. Samples were taken from both apical and basolateral compartments at 120 min and diluted into an appropriate solvent to allow drug quantitation using LC-MS/MS.
(§6) Samples from permeability assays were also diluted into Mobile Phase A prior to analysis.
(§7) Mobile Phase A was 3/1/96 acetonitrile/acetic acid/water and Mobile Phase B was 96/1/3 acetonitrile/acetic acid/water. Rather than isocratic elution, a gradient program was used. The gradient program held at 0% B for 1 min, ramped to 98% B from 1 to 2 min, held at 98% B from 2 to 3 min, and then returned to initial conditions. Q1/Q3 ions for TFV-ME and TDF were 404.0/270.0 and 520.1/270.0, respectively.

P-gp [7] = assay: in vitro; assay type: in vitro ADME; conditions: human, Caco-2, pH 7, with none (CsA 0.00 µM)
Protocol: as §5, §6, §7

Caco-2 cell monolayers = assay type: in vitro ADME
Protocol: as §5, §6, §7

[8] = parameters: method as in ref 33 = [33]; 33 Arimilli M. Kim C. Bischofberger N. Dougherty J. Synthesis, in vitro biological evaluation and oral bioavailability of prodrugs of the antiretroviral agent 9-[2-(phosphonomethoxy)-propyl] adenine; conditions: cited from earlier work
[9] = parameters: method as in PMID 9660984; conditions: oral administration of TDF; mice; cited from earlier work
[10] = parameters: method as in PMID 11557462, PMID 15217303; conditions: humans, cited from earlier work
[11] = parameters: method as in ref 50 = [50]; 50 Center for Drug Evaluation and Research (2001) Clinical Pharmacology and Pharmaceutics Review Application Number 21-356, page 78 Available at: http://www.accessdata.fda.gov/drugsatfda_docs/nda/2001; conditions: rat, literature, normalized for dose; cited from earlier work
in vitro [12] = conditions: human, intestinal S9 fraction
Protocol: as §3, §4

in vitro [13] = conditions: rat, intestinal S9 fraction
Protocol: as §3, §4

[14] = cited from earlier work
[15] = dog, in vivo; cited from earlier work
[16] = rat S9, 10 μM TDF, 37°C, 10 μM BNPP, 100 μM PMSF, 0.05% wt/vol EM1, 1 mM PP, 1 mM MP, 1 mM EP
[17] = human S9, 10 μM TDF, 37°C, 10 μM BNPP, 100 μM PMSF, 0.05% wt/vol EM1, 1 mM PP, 1 mM MP, 1 mM EP
[18] = MDCK-MDR1, with none (0 µM GF918)
[19] = Caco-2, versus no inhibitor, 1 mM BNPP, 1 mM PP, 0.05% wt/vol EM1, 0.5 mg/mL TPGS, 10 μM CsA, 2 μM GF918
[20] = Caco-2 A to B, 10 μM, 120 min, 1 mM BNPP, 1 mM PP, 0.05% wt/vol EM1, 0.5 mg/mL TPGS, 10 μM CsA, 2 μM GF918

Structure (SMILES): CCCOC(=O)c1ccc(O)cc1 [PP, propylparaben]
- protection of TDF against PL hydrolysis [1]: did not protect TDF
- inhibition of TDF metabolism [2]: 94.5%
- TDF Rate Constant with inhibitor (rat intestinal S9; [16]): -0.196 min⁻¹
- TDF Rate Constant with inhibitor (human intestinal S9; [17]): -0.035 min⁻¹

Structure (SMILES): O=S(=O)(F)Cc1ccccc1 [PMSF, phenylmethylsulfonyl fluoride]
- TDF Rate Constant with inhibitor (rat intestinal S9; [16]): -1.064 min⁻¹
- inhibition of TDF hydrolysis (rat intestinal S9; 100 μM PMSF, 1 mM EP, 1 mM MP): did not show any substantial inhibition
- TDF Rate Constant with inhibitor (human intestinal S9; [17]): -0.185 min⁻¹
- inhibition of TDF hydrolysis (human intestinal S9; 100 μM PMSF, 1 mM EP, 1 mM MP): did not show any substantial inhibition

Structure (SMILES): COC(=O)c1ccc(O)cc1 [MP, methylparaben]
- protection of TDF against PL hydrolysis [1]: did not protect TDF
- TDF Rate Constant with inhibitor (rat intestinal S9; [16]): -1.297 min⁻¹
- inhibition of TDF hydrolysis (rat intestinal S9; 100 μM PMSF, 1 mM EP, 1 mM MP): did not show any substantial inhibition
- TDF Rate Constant with inhibitor (human intestinal S9; [17]): -1.065 min⁻¹
- inhibition of TDF hydrolysis (human intestinal S9; 100 μM PMSF, 1 mM EP, 1 mM MP): did not show any substantial inhibition

Structure (SMILES): C[C@H](Cn1cnc2c(N)ncnc21)OCP(=O)(O)O [TFV, tenofovir]
- AUC (in vivo; read-out: TFV AUC, Mean): 3210 ng·h/mL
- AUC (in vivo; read-out: TFV AUC, Median): 3200 ng·h/mL
- TFV AUC, Median Fold Increase (in vivo; versus oral TDF Control): 2.85 fold
- intracellular half-life (lymphocytes; activated lymphocytes): 720 to 900 min
- intracellular half-life (lymphocytes; resting lymphocytes): 1980 to 3000 min

Structure (SMILES): CCOC(=O)c1ccc(O)cc1 [EP, ethylparaben]
- TDF Rate Constant with inhibitor (rat intestinal S9; [16]): -1.023 min⁻¹
- inhibition of TDF hydrolysis (rat intestinal S9; 100 μM PMSF, 1 mM EP, 1 mM MP): did not show any substantial inhibition
- TDF Rate Constant with inhibitor (human intestinal S9; [17]): -0.210 min⁻¹
- inhibition of TDF hydrolysis (human intestinal S9; 100 μM PMSF, 1 mM EP, 1 mM MP): did not show any substantial inhibition

Structure (SMILES): CC(C)OC(=O)OCOP(=O)(CO[C@H](C)Cn1cnc2c(N)ncnc21)OCOC(=O)OC(C)C [TDF, Tenofovir disoproxil fumarate]
- half-life at 1 mM ([3]; FaSSIF pH 6.8, 37°C): 16.6 ± 3.4 h
- half-life at 1 mM ([3]; FaSSIF pH 9, 37°C): 2.9 ± 0.2 h
- half-life at 1 mM ([3]; FaSSIF pH 11, 37°C): 0.0567 ± 0.102 h
- half-life at 1 mM ([3]; SGF pH 1.2, 37°C): > 55 h
- half-life at 10 µM ([4]; pig, porcine pancrelipase (PL) in FaSSIF, 10 μM, PL 480 U/mL): 2 ± 2.3 min
- stability in SGF and FaSSIF [4]: stable
- half-life at 10 µM ([1]; porcine pancrelipase (PL) in FaSSIF, FaSSIF): 6.35 min
- half-life at 10 µM ([1]; porcine pancrelipase (PL) in transport media, transport media): 7.59 min
- Papp, B to A (MDCK-MDR1 cells (P-gp); MDCK-MDR1, 0 μM GF918, 120 min): 295.0 (6.1) nm/s
- Papp A→B at 120 min, 5 µM (P-gp [5]; MDCK-MDR1, with GF918 2 µM): 2.25 ×10⁻⁶ cm/s
- efflux ratio at 2 h, 5 µM (P-gp [5]; MDCK-MDR1, with GF918 2 µM): 1.5
- Papp B→A at 120 min, 5 µM (P-gp [5]; MDCK-MDR1, with GF918 2 µM, MDCK-MDR1, 2 μM GF918, 120 min): 3.41 ×10⁻⁶ cm/s
- Papp A→B at 120 min, 5 µM (P-gp [5]; [18]): 0.67 ×10⁻⁶ cm/s
- efflux ratio at 2 h, 5 µM (P-gp [5]; [18]): 44.2
- Papp B→A at 120 min, 5 µM (P-gp [5]; MDCK-MDR1, with none (0 µM GF918), MDCK-MDR1, 0 μM GF918, 120 min): 29.5 ×10⁻⁶ cm/s
- TDF Papp, A to B [6]: 0.698 ×10⁻⁶ cm/s
- Papp A→B at 120 min, 10 µM (P-gp [7]; Caco-2, 10 μM TDF, 120 min, no inhibitor (CsA 0.00 µM)): 0.7 ×10⁻⁶ cm/s
- efflux ratio at 120 min, 10 µM (P-gp [7]; read-out: TDF E.R. (efflux ratio)): 12
- Papp B→A at 120 min, 10 µM (P-gp [7]; read-out: TDF Papp, B to A): 8.16 ×10⁻⁶ cm/s
- % Measured Basolateral, TDF (median) (Caco-2 cell monolayers; Caco-2 A to B, 10 μM, 120 min, no esterase inhibitor, no P-gp inhibitor): 0.78%
- half-life ([8]; pH 2.2, 37°C): > 150 h
- half-life ([8]; pH 7.4, 37°C): 8 h
- oral bioavailability of TFV [9]: 20%
- TDF oral bioavailability following a high fat meal ([10]; after high fat meal): 39%
- oral bioavailability of TFV ([10]; oral administration of TDF): under 30%
- AUC [11]: 1490 ng·h/mL
- half-life at 10 µM (in vitro [12]): 0.62 ± 1.29 min
- half-life at 10 µM (in vitro [13]): 0.58 ± 1.79 min
- pKa [14]: 3.75
- partition coefficient (log P) [14]: 1.25
- Biopharmaceutics Classification System class ([14]; high solubility and low permeability): class 3
- water solubility ([14]; room temperature): 15.3 mg/mL
- oral bioavailability of TFV [15]: 30%
- TDF Rate Constant (rat intestinal S9; rat S9 0.5 mg protein/mL, 10 μM TDF, 37°C, Buffer (no inhibitor)): -1.200 min⁻¹
- TDF Rate Constant (human intestinal S9; human S9 0.5 mg protein/mL, 10 μM TDF, 37°C, Buffer (no inhibitor)): -1.123 min⁻¹

Structure (SMILES): O=[N+]([O-])c1ccc(OP(=O)(O)Oc2ccc([N+](=O)[O-])cc2)cc1 [BNPP, Bis-para-nitrophenylphosphate]
- Fold Increase, TDF (A to B transport) (Caco-2 cell monolayers; [19]): 6.2 fold
- Fold Increase, TFV Family (A to B transport) (Caco-2 cell monolayers; [19]): 3.1 fold
- % Measured Basolateral, TDF (median), with inhibitor(s) (Caco-2 cell monolayers; [20]): 4.88%
- % Measured Basolateral, TNF (median), with inhibitor(s) (Caco-2 cell monolayers; [20]): 0.00%
- % Measured Basolateral, TNF-ME (median), with inhibitor(s) (Caco-2 cell monolayers; [20]): 0.55%
- TDF Rate Constant with inhibitor (rat intestinal S9): -0.016 min⁻¹
- TDF Rate Constant with inhibitor (human intestinal S9): -0.009 min⁻¹

Structure (SMILES): CC(C)OC(=O)OCOP(=O)(O)CO[C@H](C)Cn1cnc2c(N)ncnc21 [TFV-ME, tenofovir monophosphonate ester]
- half-life in FaSSIF with PL ([4]; 10 μM, PL 480 U/mL): 38.0 ± 2.0 min
- stability in SGF and FaSSIF [4]: stable
- Efflux ratio (MDCK-MDR1 cells (P-gp); MDCK-MDR1, 0 μM GF918): 2.1
- Papp, A to B (MDCK-MDR1 cells (P-gp); MDCK-MDR1, 0 μM GF918, 120 min): 4.1 (0.20) nm/s
- Papp, B to A (MDCK-MDR1 cells (P-gp); MDCK-MDR1, 0 μM GF918, 120 min): 8.8 (0.60) nm/s
- Efflux ratio (MDCK-MDR1 cells (P-gp); MDCK-MDR1, 2 μM GF918): 0.9
- Papp, A to B (MDCK-MDR1 cells (P-gp); MDCK-MDR1, 2 μM GF918, 120 min): 5.3 (0.61) nm/s
- Papp, B to A (MDCK-MDR1 cells (P-gp); MDCK-MDR1, 2 μM GF918, 120 min): 5.0 (0.58) nm/s
